Results as given in patent US20250144067A1, “PERSONALIZED STARVATION THERAPY FOR CANCER” (Faeth Therapeutics, Inc., priority 2021, published 2025).
Counter-ions that a name gives are not always drawn.

Tests used:
[1] = tested on: NCI-H292 lung cancer cells; experiment: FDA drug screening, complete media vs cholesterol-free media with simvastatin (TABLE 2); type: cell-based, human; settings: for Cholesterol-free media + simvastatin (0.04 μM) / Complete Media: NCI-H292 cells
[2] = tested on: NCI-H292 lung cancer cells; experiment: FDA drug screening, complete media vs cholesterol-free media without statin (TABLE 1); type: cell-based, human
[3] = cholesterol-free media with simvastatin 0.04 μM, FDA drug library screen (TABLE 2)
[4] = complete media, FDA drug library screen (TABLE 2)
[5] = NCI-H292 cells, cholesterol-free media without statin, FDA drug library screen
[6] = NCI-H292 cells, complete media, FDA drug library screen
[7] = cholesterol-free media with simvastatin 0.04 μM, cell growth value in FDA drug screen
[8] = complete media, cell growth value in FDA drug screen
[9] = complete media minus cholesterol-free media + simvastatin, >0 enhanced anti-cancer activity, about 0 neutral, <0 antagonist
[10] = Complete minus Cholesterol-free, >0 enhanced anti-cancer activity, about 0 neutral, <0 antagonist
[11] = NCI-H292 cells, cholesterol-free media without statin
[12] = FDA drug library screen, cholesterol-free media with simvastatin 0.04 μM
[13] = FDA drug library screen, complete media
[14] = complete media vs cholesterol-free media + simvastatin (0.04 μM), >0 enhanced anti-cancer activity, about 0 neutral, <0 antagonist
[15] = FDA library drug in cholesterol-free media with simvastatin 0.04 μM
[16] = FDA library drug in complete media
[17] = complete media vs cholesterol-free media + simvastatin (0.04 μM), […]
[18] = complete vs cholesterol-free media, […]
[19] = complete vs cholesterol-free media, >0 enhanced anti-cancer activity, about 0 neutral, <0 antagonist
[20] = drug in cholesterol-free media with simvastatin 0.04 μM
[21] = complete media minus cholesterol-free media + simvastatin (0.04 μM), >0 enhanced anti-cancer activity, about 0 neutral, <0 antagonist
[22] = Complete minus Cholesterol-free, greater than 0 enhanced anti-cancer activity, about 0 neutral, below 0 antagonist
[23] = NCI-H292 cells, FDA drug library screen, cholesterol-free media without statin
[24] = NCI-H292 cells, FDA drug library screen, complete media
[25] = Complete minus Cholesterol-free, greater than 0 enhanced anti-cancer activity, about 0 neutral, below 0 antagonists
[26] = NCI-H292 cells in cholesterol-free media without statin
[27] = NCI-H292 cells in complete media

SMILES: CC(=O)O[C@H]1C[C@H](O[C@H]2[C@@H](O)C[C@H](O[C@H]3[C@@H](O)C[C@H](O[C@H]4CC[C@@]5(C)[C@H](CC[C@@H]6[C@@H]5C[C@@H](O)[C@]5(C)[C@@H](C7=CC(=O)OC7)CC[C@]65O)C4)O[C@@H]3C)O[C@@H]2C)O[C@H](C)[C@H]1O[C@@H]1O[C@H](CO)[C@@H](O)[C@H](O)[C@H]1O [Lanatoside C]
- Cholesterol-free media + simvastatin (0.04 μM) [1, 3]: −0.002744
- Complete Media [1, 4]: −0.008403
- Difference ([1]; complete media minus cholesterol-free media + simvastatin (0.04 μM), […]): −0.01
- Difference ([2]; Complete minus Cholesterol-free, […]): −0.02
- Cholesterol-free [2, 5]: 7.102E−18
- Complete [2, 6]: −0.02112

SMILES: CCCCCCCC/C=C\CCCCCCCC(=O)O [Oleic acid]
- Cholesterol-free media + simvastatin (0.04 μM) [1, 7]: 0.7267
- Complete Media [1, 8]: 0.8301
- Difference [1, 9]: 0.10
- Difference [2, 10]: −0.25
- Cholesterol-free [2, 11]: 1.214
- Complete ([2]; NCI-H292 cells, complete media): 0.9643

SMILES: C[C@]12CCC(=O)C=C1CC[C@@H]1[C@@H]2C(=O)C[C@@]2(C)[C@H]1CC[C@]2(O)C(=O)CO [Cortisone]
- Cholesterol-free media + simvastatin (0.04 μM) [1, 12]: 1.033
- Complete Media [1, 13]: 0.8818
- Difference [1, 14]: −0.15
- Difference [2, 10]: −0.30
- Cholesterol-free [2, 11]: 1.216
- Complete ([2]; NCI-H292 cells, complete media): 0.9117

SMILES: C[C@]12CC[C@H](O)CC1=CC[C@@H]1[C@@H]2CC[C@]2(C)C(=O)CC[C@@H]12 [DHEA]
- Cholesterol-free media + simvastatin (0.04 μM) [1, 15]: 1.034
- Complete Media [1, 16]: 0.7371
- Difference [1, 17]: −0.30
- Cholesterol-free [2, 5]: 1.449
- Complete [2, 6]: 1.634
- Difference [2, 18]: 0.19

SMILES: O=C1C(O)=C([C@H]2CC[C@H](c3ccc(Cl)cc3)CC2)C(=O)c2ccccc21 [Atovaquone]
- Cholesterol-free media + simvastatin (0.04 μM) [1, 12]: 1.327
- Complete Media [1, 13]: 1.493
- Difference [1, 9]: 0.17
- Cholesterol-free [2, 5]: 0.9543
- Complete [2, 6]: 1.102
- Difference [2, 19]: 0.15

SMILES: Cc1cc(C2=NOC(c3cc(Cl)cc(Cl)c3)(C(F)(F)F)C2)ccc1C(=O)NCC(=O)NCC(F)(F)F (stereo not drawn) [Fluralaner]
- Cholesterol-free media + simvastatin (0.04 μM) [1, 20]: 1.609
- Complete Media ([1]; drug in complete media): 1.41
- Difference [1, 17]: −0.20
- Cholesterol-free [2, 5]: 0.6434
- Complete [2, 6]: 1.375
- Difference [2, 18]: 0.73

SMILES: COc1cc(OC)cc(N(CCNC(C)C)c2ccc3ncc(-c4cnn(C)c4)nc3c2)c1 [Erdafitinib]
- Cholesterol-free media + simvastatin (0.04 μM) [1, 7]: 0.8898
- Complete Media [1, 8]: 0.9602
- Difference [1, 9]: 0.07
- Cholesterol-free [2, 5]: 0.8277
- Complete [2, 6]: 1.177
- Difference [2, 19]: 0.35

SMILES: Nc1cccc2c1CN(C1CCC(=O)NC1=O)C2=O (stereo not drawn) [Lenalidomide]
- Cholesterol-free media + simvastatin (0.04 μM) [1, 3]: 1.008
- Complete Media [1, 4]: 0.9958
- Difference [1, 21]: −0.01
- Difference [2, 22]: −0.16
- Cholesterol-free [2, 23]: 1.032
- Complete [2, 24]: 0.8739

SMILES: CC(C)(C)c1ccc(CN2CCN(C(c3ccccc3)c3ccc(Cl)cc3)CC2)cc1 (stereo not drawn) [Buclizine (dihydrochloride)]
- Cholesterol-free media + simvastatin (0.04 μM) [1, 7]: 0.9719
- Complete Media [1, 8]: 1.018
- Difference [1, 9]: 0.05
- Cholesterol-free [2, 5]: 0.6562
- Complete [2, 6]: 1.363
- Difference [2, 19]: 0.71

SMILES: CC(C)NCC(O)COc1cccc2ccccc12 (stereo not drawn) [Propranolol (hydrochloride)]
- Cholesterol-free media + simvastatin (0.04 μM) [1, 3]: 0.8722
- Complete Media [1, 4]: 0.8715
- Difference [1, 21]: 0.00
- Cholesterol-free [2, 11]: 1.016
- Complete ([2]; NCI-H292 cells, complete media): 0.5683
- Difference ([2]; complete vs cholesterol-free media, greater than 0 enhanced anti-cancer activity, about 0 neutral, below 0 antagonists): −0.45

SMILES: Cc1cc(C#N)cc(C)c1Oc1nc(Nc2ccc(C#N)cc2)nc(N)c1Br [Etravirine]
- Cholesterol-free media + simvastatin (0.04 μM) [1, 3]: 0.8346
- Complete Media [1, 4]: 0.8071
- Difference [1, 21]: −0.03
- Difference [2, 25]: −0.49
- Cholesterol-free [2, 26]: 1.424
- Complete [2, 27]: 0.9362

SMILES: Cc1ncc([N+](=O)[O-])n1CCOC(=O)c1ccccc1 [Metronidazole Benzoate]
- Cholesterol-free media + simvastatin (0.04 μM) [1, 12]: 1.104
- Complete Media [1, 13]: 1
- Difference [1, 14]: −0.10
- Difference [2, 10]: −0.30
- Cholesterol-free [2, 11]: 1.298
- Complete ([2]; NCI-H292 cells, complete media): 1.001

SMILES: CCOC(=O)N1CCC(=C2c3ccc(Cl)cc3CCc3cccnc32)CC1 [Loratadine]
- Cholesterol-free media + simvastatin (0.04 μM) [1, 7]: 0.8147
- Complete Media [1, 8]: 0.9097
- Difference [1, 9]: 0.10
- Difference [2, 10]: −0.30
- Cholesterol-free [2, 11]: 1.122
- Complete ([2]; NCI-H292 cells, complete media): 0.8264

SMILES: CC(C)(C)C(=O)Oc1ccc(S(=O)(=O)Nc2ccccc2C(=O)NCC(=O)O)cc1 [Sivelestat]
- Cholesterol-free media + simvastatin (0.04 μM) [1, 7]: 0.7952
- Complete Media [1, 8]: 0.866
- Difference [1, 9]: 0.07
- Difference [2, 22]: −0.16
- Cholesterol-free [2, 23]: 1.175
- Complete [2, 24]: 1.017

SMILES: C=CCCCCCCCCC(=O)O [10-Undecenoic acid (zinc salt)]
- Cholesterol-free media + simvastatin (0.04 μM) [1, 15]: 1.561
- Complete Media [1, 16]: 1.235
- Difference [1, 14]: −0.33
- Difference [2, 10]: −0.19
- Cholesterol-free [2, 11]: 1.263
- Complete ([2]; NCI-H292 cells, complete media): 1.076

SMILES: CCOC(=O)[C@H](CCc1ccccc1)N[C@@H](C)C(=O)N1[C@H](C(=O)O)C[C@@H]2CCC[C@@H]21 [Ramipril]
- Cholesterol-free media + simvastatin (0.04 μM) [1, 3]: 1.055
- Complete Media [1, 4]: 0.9941
- Difference [1, 21]: −0.06
- Difference [2, 10]: −0.24
- Cholesterol-free [2, 11]: 1.132
- Complete ([2]; NCI-H292 cells, complete media): 0.8936

SMILES: COc1cc([C@@H]2c3cc4c(cc3[C@@H](O[C@@H]3O[C@@H]5CO[C@@H](c6cccs6)O[C@H]5[C@H](O)[C@H]3O)[C@H]3COC(=O)[C@H]23)OCO4)cc(OC)c1O [Teniposide]
- Cholesterol-free media + simvastatin (0.04 μM) [1, 20]: 0.3807
- Complete Media ([1]; drug in complete media): 0.1883
- Difference [1, 14]: −0.19
- Difference [2, 22]: −0.09
- Cholesterol-free [2, 23]: 0.1831
- Complete [2, 24]: 0.09739

SMILES: CCOC(=O)[C@@H](N)Cc1ccc(-c2cc(O[C@H](c3ccc(Cl)cc3-n3ccc(C)n3)C(F)(F)F)nc(N)n2)cc1 [Telotristat etiprate]
- Cholesterol-free media + simvastatin (0.04 μM) [1, 12]: 1.173
- Complete Media [1, 13]: 1.074
- Difference [1, 14]: −0.10
- Difference [2, 25]: −0.51
- Cholesterol-free [2, 26]: 1.323
- Complete [2, 27]: 0.8145
